In US20080069827A1, “miRNA of HSV-LAT and uses thereof” (priority 2006, published 2008):

Legend:
Assay type in all cases: cell-based
[1] = tested on: TGF-β/SMAD-dependent transcription; experiment: SBE4-Luc TGF-β responsive reporter assay in SY5Y cells; conditions: 10 ng/ml recombinant TGF-β1
Description: (§1) Cells were co-transfected with pCDNA or PstMlu (1 μg) and the respective reporter constructs (500 ng) along with pSV-βgal (10 ng). For induction of TGF-p signaling, 24 h following transfection the cells were treated with 10 ng/ml of recombinant TGF-β1 protein (R&D systems). Reporter activity was measured using a appropriate assay kits (promega).
Cells were co-transfected with pCDNA or PstMlu (1 μg) and the respective reporter constructs (500 ng) along with pSV-βgal (100 ng). For induction of TGF-β signaling, 24 h following transfection the cells were treated with 10 ng/ml of recombinant TGF-β 1 protein (R&D systems) for 12-16 hours at 37° C. in serum free media. Cells were lysed using the reporter lysis buffer (promega). Luciferase activity was measured using a renilla or firefly Luciferase assay kit (promega). β-galactosidase activity was determined in all lysates (promega) according to manufacturer's instructions. The Luciferase activity in all samples was normalized to the amount of β-galactosidase activity.

3′UTR of SMAD-3 = experiment: Renilla luciferase reporter with 3′UTR / mirLAT target site of SMAD-3 in SY5Y cells
Description: as §1
(§2) SY5Y cells were maintained in RPMI medium with 10% fetal calf serum and antibiotics. HeLa cells were grown in DMEM medium supplemented with 5% fetal calf serum and antibiotics. Plasmids having the PstMlu fragment of LAT and its deletion mutant ΔSty have been described. GFP-shRNA pSilencer plasmid was a kind gift from Dr Kuan-Teh Jeang, NIH, USA. The SBE4-Luc construct was a kind gift from Dr Anita Roberts, NIH, USA. The pGL3-control and pSV-βgal plasmids were obtained from Promega. The pRL-TK vector was obtained from Dr Zissimos Mourelatos, University of Pennsylvannia, USA. […] Recombinants were scored for reversion of deletion in ΔSty resulting in virus which is genetically similar to wild type virus. […]
(§3) Cells were co-transfected with pCDNA or PstMlu (1 μg) and the respective reporter constructs (500 ng) along with pSV-βgal (100 ng). […] Luciferase activity was measured using a renilla or firefly Luciferase assay kit (promega). β-galactosidase activity was determined in all lysates (promega) according to manufacturer's instructions. […]

3′UTR of TGF-β = experiment: Renilla luciferase reporter with 3′UTR / mirLAT target site of TGF-β in SY5Y cells
Description: as §1, §2, §3

SY5Y cells = experiment: Apoptosis assay (AnnexinV FITC staining after cisplatin or etoposide) in SY5Y cells; conditions: cisplatin 24 h post transfection, compared to control
Description: (§4) 24 hours post-transfection cells were treated with cisplatin (10 µM) or etoposide (1-100 μM), followed by staining with AnnexinV FITC (BD Biosciences). Cells showing FITC staining, loss of cell volume, loss of refractility, and membrane blebbing were scored as apoptotic. At least 500 cells were counted in each well.
as §4, with “μM)” for “µM)”, “([…]” for “(1-100”, “well. The data represent mean±S.D. from at least three independent experiments.” for “well.”

HeLa cells = experiment: Apoptosis assay (AnnexinV FITC staining after cisplatin or etoposide) in HeLa cells; conditions: cisplatin 24 h post transfection, compared to control miRNA
Description: as §4
as §4, with “μM)” for “µM)”, “([…]” for “(1-100”, “well. The data represent mean±S.D. from at least three independent experiments.” for “well.”

TGF-β = TGF-β expression (RT-PCR, latent TGF-β1 ELISpot); conditions: SY5Y cells
Description: (§5) RNA was isolated using Trizol reagent (Invitrogen). RNA was reverse transcribed using Superscript II RT enzyme (Invitrogen). Northern blot analysis of 50-60 μg total RNA was done as described previously. Western blot analysis was performed on whole cell lysates using Dicer polyclonal antibody and β-actin antibody (Amersham). SMAD-3 and TGF-β receptor I antibodies were from Abcam.
(§6) RNA was isolated using Trizol reagent according to the manufacturer's instruction. RNA was reverse transcribed using Superscript II RT enzyme (Invitrogen). Dicer, TGF-β 1, SMAD-3, TGF-β receptor I and GAPDH cDNA were amplified using gene specific primers. Northern blot analysis of 50-60 μg total RNA was done. Radioactive probes were generated using Starfire oligonucleotide labeling system (IDT). Western blot analysis was performed on whole cell lysates using Dicer polyclonal antibody, a kind gift from Dr Ramin Shiekhattar, Wistar Institute, Philadelphia, USA and β-actin antibody (Amersham). SMAD-3 and TGF-β receptor I antibodies were from Abcam. […] Synthetic RNA molecule corresponding to the mirLAT pre-miRNA (Dhramacon) was radiolabelled by polynucleotide kinase reaction (Invitrogen), column purified and incubated with 2 U Recombinant Dicer enzyme (Stratagene) at 37° C. for 16 hours and analyzed by gel electrophoresis and exposure to a phosphor imager screen.

SMAD-3 = SMAD-3 expression (RT-PCR, Western blot); conditions: SY5Y cells
Description: as §5, §6

[2] = mutant target site that disrupts mirLAT binding
[3] = single copy of wild-type mirLAT target site

Substance | TGF-β mediated induction of SBE4-Luc reporter [1] | luciferase activity, mutant SMAD-3 target site construct (3′UTR of SMAD-3; [2]) | reduction in luciferase activity, wild-type SMAD-3 target site construct (3′UTR of SMAD-3; [3]) | luciferase activity, mutant TGF-β target site construct (3′UTR of TGF-β; [2]) | reduction in luciferase activity, wild-type TGF-β target site construct (3′UTR of TGF-β; [3]) | cisplatin-induced apoptosis (percentage apoptosis) (SY5Y cells) | cisplatin-induced apoptosis (percentage apoptosis) (HeLa cells) | mRNA levels / expression of TGF-β (TGF-β) | mRNA levels / expression of SMAD-3 (SMAD-3)
5′-GUGGCGGCCCGGCCCGGGGCCTT-3′ [mirLAT] | significant reduction in TGF-β mediated induction | does not show any significant decrease in luciferase activity | up to 90% | does not show any significant decrease in luciferase activity | up to 90% | significant reduction in apoptosis | significant reduction in apoptosis |  | 
CCAACUAUUGCUUCAGCUCTT (chemistry not given here) [TGF-β siRNA, siRNA directed against TGF-β (Ambion)] |  |  |  |  |  | confers resistance to apoptosis |  | inhibited | 
GCACAUAAUAACUUGGACCTT (chemistry not given here) [SMAD-3 siRNA, siRNA directed against SMAD-3 (Ambion)] |  |  |  |  |  | confers resistance to apoptosis |  |  | inhibited
